Measured values published in paper PMC8727943, “Identification and characterization of a novel glutaminase inhibitor” (FEBS Open Bio, 2021).
Values joined by “and” are separate entries in the source; they are usually repeats but may differ in a detail not shown here. Identical values can stand only once. “Also recorded” adds a separate entry of the source. Like-named read-outs stand apart in the source and are kept apart here. Each block holds one compound with its values, some of them ahead of it.

Experiments:
human CD4+ T cells = experiment: CFSE-based anti-CD3/CD28-induced CD4+ T-cell proliferation assay; conditions: for percentage of proliferating cells (CFSE dilution), mean: compound 25 µM, anti-CD3/CD28 beads 1:1, 96 h, stimulated control 71.70% ± 1.60
Experimental: Human CD4+ T cells were isolated from buffy coats of healthy donors (obtained from Blodbanken, Oslo, Norway) using the Dynabeads CD4 Positive Isolation Kit (Life Technologies AS, Norway) according to the manufacturer's protocol. […] After 4 days of incubation, beads were removed; cells were washed with 1x PBS, and T‐cell proliferation was assessed by measuring the CFSE dilution using flow cytometry.

[1] = test system: anti-CD3/CD28-induced CD4+ T cells; conditions: cited from earlier work
GLS1 = conditions: cited from earlier work; for potency of GLS1 inhibition in vitro: varying with cell types; for fold increased inhibitory efficiency compared with DON and BPTES: GLS inhibitors
[2] = target: T1, recombinant human glutaminase Δ129GAC (Homo sapiens, UniProt O94925); experiment: Coupled GLS/GDH enzyme assay (HTS and dose response), NADH readout; format: biochemical; conditions: for IC50: 10-point dose response, twofold serial dilution 0.39–200 µM, nonlinear curve fitting, read-out: IC50 for Δ129GAC inhibition; for inhibition at 10 µM: HTS, compound 10 µM, read-out: inhibition of Δ129GAC, positive hits of HTS counter screen; for inhibition of His-Δ129GAC reached in the dose response: dose response 0.39–200 µM
T1 construct: to generate peptides from amino acids 17‐598 and 73‐598 and 130‐598, respectively; made in house; host or cells: Escherichia coli BL21DE3 Rosetta (pRARE)
T1 sequence (O94925 130-598 isoform O94925-3): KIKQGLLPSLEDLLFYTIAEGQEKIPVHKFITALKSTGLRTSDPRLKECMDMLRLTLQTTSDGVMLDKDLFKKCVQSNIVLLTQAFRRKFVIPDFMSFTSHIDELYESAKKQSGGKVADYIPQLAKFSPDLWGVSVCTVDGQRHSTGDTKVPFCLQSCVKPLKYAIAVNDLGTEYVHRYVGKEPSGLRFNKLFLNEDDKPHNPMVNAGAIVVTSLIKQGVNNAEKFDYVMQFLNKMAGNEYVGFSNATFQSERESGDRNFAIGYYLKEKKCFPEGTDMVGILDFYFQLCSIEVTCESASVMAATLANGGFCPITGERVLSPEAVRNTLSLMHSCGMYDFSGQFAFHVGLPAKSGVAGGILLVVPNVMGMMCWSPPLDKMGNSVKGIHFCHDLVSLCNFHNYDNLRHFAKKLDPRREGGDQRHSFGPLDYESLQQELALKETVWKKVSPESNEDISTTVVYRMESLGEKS
Experimental: The assay used to determine GLS activity for HTS and enzyme kinetics measurements was adapted from Cassago et al.. In brief, this assay determines the activity of GLS by measuring the amount of NADH produced by glutamate dehydrogenase (GDH) when converting glutamate to α‐ketoglutarate. […] For HTS, the enzyme assay was run using the following conditions: 6 nM Δ129GAC, 50 mM Tris‐acetate, pH 8.6, 3 units of bovine serum GDH (Sigma‐Aldrich), 2 mM NAD^+ (Roche, Basel, Switzerland), 4 mM glutamine, 50 mM K2PO4 (MERCK, Kenilworth, NJ, USA) and 0.005% Tween‐20 (Sigma‐Aldrich). […] 10 nL of each compound was applied to the wells using an ECHO 550 liquid handler (Labcyte, Sunnyvale, CA, USA) followed by dispensing and mixing of 5 µL enzyme assay mix (Hamilton Microlab Star, Reno, NV, USA). This mix was incubated at room temperature for 1 h. Columns 23 and 24 on the plate contained wells for positive and negative controls to determine Z‐factor values. Z‐factor value was calculated based on formula 1: Formula1:[…] σp is the SD of the positive control, σn is the SD of the negative control, µp is the mean of the positive control and µn is the mean of the negative control. Following 1‐h incubation, 5 µL of glutamine (final concentration 4 mM) was added.
To become enzymatically active, the first 16 and 72 amino acids at the N‐terminal must be sequentially deleted in the mitochondria from endogenous GLSGAC [6]. We cloned and expressed three variants of GAC, Δ16GAC, Δ72GAC and Δ129GAC (Fig. 1A,B). […] Next, Δ129GAC PCR product was cloned into pET‐24(b) which contained DNA encoding sequence for a His‐tag. […] Using His‐Δ129GAC, a HTS GAC enzyme activity assay was modified according to Cassago et al.. Briefly, the assay is a two‐step enzymatic assay where glutamine converted to glutamate by His‐Δ129GAC and further to α‐ketoglutarate and NADH by GDH (Fig. 1D). The glutamine consumption activity of His‐Δ129GAC was determined by assuming a stoichiometric ratio of one glutamine consumed to every molecule of NADH produced.

His-Δ129GAC = target: T2, His-Δ129GAC (Homo sapiens, UniProt O94925); experiment: Microscale thermophoresis (MST), labelled and nonlabelled; format: binding; conditions: 25 °C
T2 construct: to generate peptides from amino acids 17‐598 and 73‐598 and 130‐598, respectively; made in house; host or cells: Escherichia coli BL21DE3 Rosetta (pRARE)
T2 sequence (O94925 130-598 isoform O94925-3): T1 sequence (O94925 130-598 isoform O94925-3)
Experimental: For the nonlabelled microscale thermophoresis (MST) assay, a 16‐point titration series of compound was done in a protein concentration of 100 nM Δ129GAC. […] Samples were loaded into Zero Background MST Premium Coated Capillaries, and measurements were done with a Monolith NT Label‐Free instrument (NanoTemper) at 25 °C using 20% MST power and 20% excitation power. […] For labelled analyses, MST Premium Coated Capillaries were used. The experiments were performed in duplicates and data presented as mean values ± standard deviation (SD). Data were normalized and nonlinear curve fitted using […] PRISM version 6 (La Jolla, CA, USA).

[3] = target: T1, recombinant human glutaminase Δ129GAC; experiment: Steady-state kinetic analysis of Δ129GAC in the presence of C19; format: biochemical
Experimental: […] of NADH in the HTS was measured at 340 nm after 5 min, and quantification was done by using the extinction coefficient for NADH of 6220 M^−1·cm^−1 and 7.7 mm of path length. The total reaction volume was 80 µL, and the measurements were performed on a FluoStar Optima (BMB Labtech, Ortenberg, Germany) microplate reader. The experiments were done in 5 replicates at 12 different substrate concentrations ranging from 0.39 to 50 mM. The kinetics were determined at compound concentrations of 16, 25 and 30 µM.

[4] = test system: cytokine production of anti-CD3/CD28-stimulated CD4+ T cells; experiment: Luminex screening assay of cytokines in T-cell culture supernatants; format: cell-based, human; conditions: compound 25 µM, day 3, normalized to stimulated control
Experimental: Supernatants from T‐cell cultures were harvested after 3 days of stimulation and stored at −20 °C. Samples were diluted twofold, and the human magnetic luminex screening assay (R&D Systems, Minneapolis, MN, USA) for TNF‐α, IL‐6, IL‐10, INF‐g, IL‐4, IL‐17α, IL‐2 was performed according to manufacturer’s instructions. Data were analysed with Milliplex Analyst (Merck Millipore) and standard curves set according to manufacturer's recommendations.

MDA-468 TNBC cells = experiment: Thymidine incorporation proliferation assay, MDA-468; format: cell-based; conditions: 72 h, read-out: IC50 proliferation MDA-468, thymidine incorporation after 72 h
[5] = target: T3, glutamate dehydrogenase (GDH) (Bos taurus, UniProt P00366); experiment: GDH counter assay (secondary enzyme of the coupled assay); format: biochemical, bovine
T3 construct: purchased Sigma‐Aldrich

MDA-231 TNBC cells = experiment: Thymidine incorporation proliferation assay, MDA-231; format: cell-based; conditions: Homo sapiens, MDA-MB-231, 72 h, read-out: IC50 proliferation MDA-231
cells = test system: cells; design: method as in PMID 909432, PMID 4587126; conditions: cited from earlier work
[6] = design: method as in PMID 30148361; conditions: cited from earlier work
[7] = design: method as in PMID 30148361; conditions: cited from earlier work; remark: listed apart in the source

T3 sequence (P00366 58-558): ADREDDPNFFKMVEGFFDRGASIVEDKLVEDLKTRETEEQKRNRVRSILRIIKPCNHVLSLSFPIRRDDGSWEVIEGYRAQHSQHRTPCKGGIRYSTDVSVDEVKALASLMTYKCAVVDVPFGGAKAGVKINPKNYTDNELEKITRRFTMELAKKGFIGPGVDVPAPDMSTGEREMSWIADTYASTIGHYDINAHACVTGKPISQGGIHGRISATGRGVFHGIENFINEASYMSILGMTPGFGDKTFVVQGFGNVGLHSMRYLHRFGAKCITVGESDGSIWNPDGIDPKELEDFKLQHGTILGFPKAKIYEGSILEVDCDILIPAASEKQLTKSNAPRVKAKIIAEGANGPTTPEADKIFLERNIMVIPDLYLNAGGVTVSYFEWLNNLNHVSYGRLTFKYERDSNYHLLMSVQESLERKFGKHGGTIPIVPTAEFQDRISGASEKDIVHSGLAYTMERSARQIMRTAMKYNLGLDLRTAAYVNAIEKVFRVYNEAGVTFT

Compound: O=C(Cc1ccccc1)Nc1nnc(CCSCCc2nnc(NC(=O)Cc3ccccc3)s2)s1 [BPTES, bis‐2‐(5‐phenylacetamido‐1,3,4‐thiadiazol‐2yl)ethyl sulfide]
percentage of proliferating cells (CFSE dilution), mean (human CD4+ T cells): 15.03%

IC50 [2]: 2.3 µM
inhibition at 10 µM [2]: ≥ 50%
Compound: Sc1nc(-c2ccccc2)cn1N=Cc1ccncc1 [C2]
inhibition of His-Δ129GAC reached in the dose response [2]: did not inhibit Δ129GAC activity by 100%; also recorded: incapable of completely inhibiting
inhibition of CD3/CD28-induced CD4+ T-cell proliferation (human CD4+ T cells): not

IC50 [2]: 5.7 µM
inhibition at 10 µM [2]: ≥ 50%
inhibition of His-Δ129GAC reached in the dose response [2]: incapable of completely inhibiting
inhibition of His-Δ129GAC reached in the dose response ([2]; listed as 15): did not inhibit Δ129GAC activity by 100%
Compound: Cc1ccc(-c2nnc3n2CCCCC3)cc1NC(=O)Cc1sc(S)nc1C [C15]
inhibition of CD3/CD28-induced CD4+ T-cell proliferation (human CD4+ T cells): not

Kd (His-Δ129GAC; 100 nM nonlabelled Δ129GAC, C19 0–1000 µM, read-out: Kd, nonlabelled MST): 20 ± 4.8 µM
Kd (His-Δ129GAC; NT-647-labelled Δ129GAC 25 nM, read-out: Kd, labelled MST): 14.7 µM
IC50 [2]: 6.8 µM
inhibition at 10 µM [2]: ≥ 50%
effect on Km of His-Δ129GAC ([3]; C19 0–30 µM): not significantly affected
K cat ([3]; [I] 16 µM C19): 23.03 ± 0.6245 s⁻¹
V max ([3]; [I] 16 µM C19, 6 nM Δ129GAC): 44.22 ± 1.1990 pmol/s
K cat ([3]; [I] 25 µM C19): 16.46 ± 0.6640 s⁻¹
V max ([3]; [I] 25 µM C19, 6 nM Δ129GAC): 31.59 ± 1.2750 pmol/s
K cat ([3]; [I] 30 µM C19): 12.31 ± 0.2425 s⁻¹
Compound: O=C(NCCNc1nc2ccccc2s1)c1cccnc1S [C19]
mode of inhibition with respect to the substrate ([3]; C19 0, 16, 25, 30 µM): noncompetitive inhibitor; also recorded: noncompetitive inhibition
V max ([3]; [I] 30 µM C19, 6 nM Δ129GAC): 23.63 ± 0.47 pmol/s and 23.63 ± 0.4655 pmol/s
IC50 (human CD4+ T cells; Homo sapiens, CD4+ T cell): 11 µM
percentage of proliferating cells (CFSE dilution), mean (human CD4+ T cells): 9.16%
levels of TNF-α, IL-10, IL-2, IL-6, INF-γ, IL-17A and IL-4 in supernatants [4]: significant decrease; also recorded: significantly better than BPTES

effect on GDH activity ([5]; 10 µM CB839 for 2 h): did not influence GDH activity
Compound: O=C(Cc1cccc(OC(F)(F)F)c1)Nc1ccc(CCCCc2nnc(NC(=O)Cc3ccccn3)s2)nn1 [CB839, Telaglenastat]
IC50 (MDA-468 TNBC cells): 0.0112 µM
effect on GDH activity ([5]; 30 nM CB839, measured after 20 min, glutamate as substrate): no effect on GDH activity; also recorded: no inhibition effect
IC50 (MDA-231 TNBC cells): 0.00019 µM

Compound: [N-]=[N+]=CC(=O)CC[C@H](N)C(=O)O [DON, 6‐diazo‐5‐oxonorleucine]
off-target toxicity to cells (cells): toxic to cells

Compound: CN1CCc2cccc3c2[C@H]1Cc1ccc(O)c(O)c1-3 [apomorphine]
fold increased inhibitory efficiency compared with DON and BPTES (GLS1): over 100 fold

Compound: COc1ccc2c(c[n+](C)c3c4cc5c(cc4ccc23)OCO5)c1OC [chelerythrine]
fold increased inhibitory efficiency compared with DON and BPTES (GLS1): over 100 fold

Compound: CN(C)c1ccc(C2Nc3ccc4ccccc4c3C3=C2C(=O)CC(C)(C)C3)cc1Br (stereo not shown) [compound 968, 5‐(3‐Bromo‐4‐(dimethylamino)phenyl)‐2,2‐dimethyl‐2,3,5,6‐tetrahydrobenzo[a]phenanthridin‐4(1H)‐one]
metabolic stability [6]: poor
potency of GLS1 inhibition in vitro (GLS1): 2.5 µM
aqueous solubility [7]: poor

Compound: O=c1c2ccccc2[se]n1-c1ccccc1 [ebselen]
fold increased inhibitory efficiency compared with DON and BPTES (GLS1): over 100 fold
